Experimental data published in patent US9949976B2, “Kinase inhibitor and use thereof” (Sihuan Pharmaceutical Holdings Group Ltd., priority 2013, dated 2018).
Read-outs that look alike come from different tables or passages of the source.

Tests used:
[1] = Pharmacokinetics in nude mouse (IV and PO); assay type: in vivo; conditions: female, BALB/c nude, plasma; for Vd: read-out: Vss; for bioavailability: read-out: F (absolute bioavailability)
Procedure: Test animal: female nude mouse (BALB/c); control agent: 3 mice/administration route at each time point, weight: 22-25 g/mouse; Compound 1: 3 mice/administration route at each time point, weight: 22-25 g/mouse; Compound 6-1: 6 mice/administration route/test compound, weight: 18-26 g/mouse.
Control agent/Compound 1, IV administration group: before administration, 0.083, 0.25, 0.5, 1, 2, 4, 6, 8, 24, and 30 h after administration; PO administration group (10 mg/kg): before administration, 0.167, 0.5, 1, 2, 4, 6, 8, 24, and 30 h after administration.
Compound 1, PO administration group (100 mg/kg): 0.167, 0.5, 1, 2, 4, 6, 8, 24, 30, and 48 h after administration.
Compound 6-1, IV administration group (2.5 mg/kg) and PO administration group (10 mg/kg): 0.083, 0.25, 0.5, 1, 2, 4, 6, 8 and 24 h after administration; Compound 6-1, PO administration group (100 mg/kg): 0.083, 0.25, 0.5, 1, 2, 4, 6, 8, 24, 30, 48 h after administration.
Control agent/Compound 1: 300 μL whole blood was collected from intraocular canthus at each time point, and was centrifuged at 8000 r/min for 6 min in a high speed centrifuge to separate the plasma; the plasma was stored in a refrigerator at −80° C. Compound 6-1: 60 μL whole blood was collected from intraocular canthus at each time point, and was placed in an anticoagulation tube containing anticoagulant agent K2EDTA; the blood sample was centrifuged at 8000 r/min for 6 min to obtain a plasma sample.
The plasma samples of control agent and compound 1 were analyzed by precipitation of protein: to 50 μL plasma, 200 μL internal standard (acetonitrile solution containing 500 ng/mL Warfarin) was added; the resultant mixture was vortexed for 3 min at 1500 r/min, and centrifuged for 5 min at 13000 r/min; to 100 μL supernatant, 400 μL water was added; the resultant mixture was mixed homogeneously under vortexing and analyzed by LC-MS/MS.
The plasma sample of compound 6-1 was analyzed by precipitation of protein: to a suitable amount of plasma, a given volume of internal standard solution was added; the resultant mixture was vortexed and centrifuged; the supernatant was diluted by adding a given volume of water; the resultant mixture was mixed homogeneously under vortexing and analyzed by LC-MS/MS.

[2] = In vivo assay for blood brain barrier permeability in rat; conditions: male, SD, 30 mg/kg, PO
Procedure: Test animal: male SD rat, 3 rats/test compound/time point, weight: 250-300 g/rat
After separate PO administration of control agent and compound 1, blood was collected by cardiac puncture at 2, 4, 24 and 48 h; about 8 ml whole blood was collected, and placed in a centrifuge tube containing K2EDTA anticoagulant agent; cerebrospinal fluid and brain tissue were also collected at the same time, 3 rats at each time point. The collected whole blood was centrifuged at 3000 r/min at 4° C. in a high speed centrifuge for 10 min to separate the plasma; and the plasma was stored in a refrigerator at −80° C. After sample collection, the concentrations of control agent and compound 1 in plasma, brain tissue and cerebrospinal fluid were determined, respectively.
The plasma samples of control agent and compound 1 were analyzed by precipitation of protein: the test samples were taken from the refrigerator (−80° C.), thawed at room temperature, and then vortexed for 3 min; to 30 μL plasma, 200 μL internal standard (acetonitrile solution containing 25 ng/mL PD0332991) was added; the resultant mixture was vortexed for 10 min at 1500 r/min, and centrifuged at 4000 r/min for 20 min; to 100 μL supernatant, 100 μL water was added; the resultant mixture was mixed homogeneously under vortexing and analyzed by LC-MS/MS.
The brain tissue and cerebrospinal fluid samples for control agent and compound 1 were analyzed by precipitation of protein: the test samples were taken from the refrigerator (−80° C.), thawed at room temperature, and then vortexed for 3 min; to 20 μL homogenated brain tissue sample, 200 μL internal standard (a solution of methanol and water at 1:1 containing 40 ng/mL dextromethorphan and 50 ng/mL dextrorphan) was added; the resultant mixture was vortexed for 3 min at 1500 r/min, and centrifuged at 4° C., 4000 g for 5 min; to 100 μL supernatant, 50 μL 0.1% formic acid-water was added; the resultant mixture was mixed homogeneously under vortexing and analyzed by LC-MS/MS. Cerebrospinal fluid sample was treated by the same way as the homogenated brain tissue sample.

Structure (SMILES)	AUC(0-t) ([1]; IV, 5 mg/kg) [ng·h/mL]	clearance ([1]; IV, 5 mg/kg) [mL/min/kg]	Vd ([1]; IV, 5 mg/kg) [L/kg]	AUC(0-t) ([1]; PO, 10 mg/kg) [ng·h/mL]	Cmax ([1]; PO, 10 mg/kg) [ng/mL]	Tmax ([1]; PO, 10 mg/kg) [h]	bioavailability ([1]; PO, 10 mg/kg) [%]	AUC(0-t) ([1]; PO, 100 mg/kg) [ng·h/mL]	Cmax ([1]; PO, 100 mg/kg) [ng/mL]	Tmax ([1]; PO, 100 mg/kg) [h]	bioavailability ([1]; PO, 100 mg/kg) [%]	AUC(0-t) ([2]; dose 30, brain tissue) [ng·h/mL]	Cmax ([2]; dose 30, brain tissue) [ng/mL]	Tmax ([2]; dose 30, brain tissue) [h]	AUC(0-t) ([2]; dose 30, cerebrospinal fluid) [ng·h/mL]	Cmax ([2]; dose 30, cerebrospinal fluid) [ng/mL]	Tmax ([2]; dose 30, cerebrospinal fluid) [h]	AUC(0-t) ([2]; dose 30, plasma) [ng·h/mL]	Cmax ([2]; dose 30, plasma) [ng/mL]	Tmax ([2]; dose 30, plasma) [h]
CCN1CCN(Cc2cnc(Nc3cc(-c4cc(F)c5nc(C)n(C(C)C)c5c4)c(F)cn3)nc2)CC1 [Compound 1, 5-((4-ethylpiperazin-1-yl)methyl)-N-(5-fluoro-4-(4-fluoro-1-isopropyl-2-methyl-1H-benzo[d]imidazol-6-yl)pyridin-2-yl)pyrimidin-2-amine]	2080	38.2	4.61	2760	675	2	65.5	33900	3080	2	77.9	12100	535	4	1290	106	4	49200	2610	4
CCN1CCN(Cc2ccc(Nc3ncc(F)c(-c4cc(F)c5nc(C)n(C(C)C)c5c4)n3)nc2)CC1 [LY2835219, reference compound]	1590	50.2	5.79	1310	368	0.5	41.1					18100	673	4	451	11.8	4	40500	1500	4
